Measured values reported in patent US20240041875A1 (priority 2022, published 2024).

What was measured:
VSV-SARS-CoV-2 [1] = format: cell-based
SARS-CoV-2 WT strain = tested on: SARS-CoV-2 WT strain; design: species or system K18-hACE2 mice; conditions: mouse, in vivo
SARS-CoV-2 = format: cell-based
VSV-SARS-CoV-2 [2] = format: cell-based; remark: listed apart in the source
A549-ACE2 cells = test: Cytotoxicity to A549-ACE2 cells, CellTiter-Glo Assay; format: cell-based, human; conditions: 0.1625 nM to 2.5 nM, 24 h
Experimental: FIG. 6. Ponatinib cytotoxicity to A549-ACE2 cells at the concentration range of 0.1625 nM to 2.5 nM). A549-ACE2 cells were treated with ponatinib for 24 h and the cell viability was detected by CellTiter-Glo Assay.

Cc1ccc(C(=O)Nc2ccc(CN3CCN(C)CC3)c(C(F)(F)F)c2)cc1C#Cc1cnc2[nH]ncc2c1 [olverembatinib]
inhibition of viral infection / plaque formation, side-by-side comparison (VSV-SARS-CoV-2 [1]): not olverembatinib treatment inhibited plaque formation

Cc1ccc(C(=O)Nc2ccc(CN3CCN(C)CC3)c(C(F)(F)F)c2)cc1C#Cc1cnc2cccnn12 [ponatinib]
body weight of infected mice (SARS-CoV-2 WT strain): two of the five mice treated with ponatinib started to regain body weight on day 7 | expression of SARS-CoV-2 nucleocapsid protein (NP) in lung tissues (IHC) (SARS-CoV-2 WT strain): markedly lower | survival of infected mice (SARS-CoV-2 WT strain): lived significantly longer than the control group | survival of infected mice at different doses (SARS-CoV-2 WT strain): Dose-dependent effect | viral RNA copies in the lung (quantitative real-time PCR) (SARS-CoV-2 WT strain): much lower than in the PBS group | viral titer in the lung (plaque assay) (SARS-CoV-2 WT strain): significantly decreased the viral load in the lung | reduction of viral infection by live SARS-CoV-2 (plaque assay) (SARS-CoV-2): significantly reduced viral infection | screening outcome, inhibition of infection by VSV-SARS-CoV-2 (VSV-SARS-CoV-2 [2]): several candidates including ponatinib | A549-ACE2 cell viability (A549-ACE2 cells): no effect on A549-ACE2 cell viability | inhibition of VSV-SARS-CoV-2 infectivity (VSV-SARS-CoV-2 [1]): significantly inhibited VSV-SARS-CoV-2 in a dose-dependent manner | inhibition of VSV-SARS-CoV-2 under four treatment conditions (concomitant, virus pre-incubated, cells pretreated, treatment after infection) (VSV-SARS-CoV-2 [1]): could inhibit VSV-SARS-CoV-2 under all these conditions | inhibition of viral infection / plaque formation, side-by-side comparison (VSV-SARS-CoV-2 [1]): inhibited plaque formation
